Data set [1] concerns the target T1, A disintegrin and metalloproteinase with thrombospondin motifs 4 (Homo sapiens, UniProt O75173).
T1 sequence (O75173 whole entry): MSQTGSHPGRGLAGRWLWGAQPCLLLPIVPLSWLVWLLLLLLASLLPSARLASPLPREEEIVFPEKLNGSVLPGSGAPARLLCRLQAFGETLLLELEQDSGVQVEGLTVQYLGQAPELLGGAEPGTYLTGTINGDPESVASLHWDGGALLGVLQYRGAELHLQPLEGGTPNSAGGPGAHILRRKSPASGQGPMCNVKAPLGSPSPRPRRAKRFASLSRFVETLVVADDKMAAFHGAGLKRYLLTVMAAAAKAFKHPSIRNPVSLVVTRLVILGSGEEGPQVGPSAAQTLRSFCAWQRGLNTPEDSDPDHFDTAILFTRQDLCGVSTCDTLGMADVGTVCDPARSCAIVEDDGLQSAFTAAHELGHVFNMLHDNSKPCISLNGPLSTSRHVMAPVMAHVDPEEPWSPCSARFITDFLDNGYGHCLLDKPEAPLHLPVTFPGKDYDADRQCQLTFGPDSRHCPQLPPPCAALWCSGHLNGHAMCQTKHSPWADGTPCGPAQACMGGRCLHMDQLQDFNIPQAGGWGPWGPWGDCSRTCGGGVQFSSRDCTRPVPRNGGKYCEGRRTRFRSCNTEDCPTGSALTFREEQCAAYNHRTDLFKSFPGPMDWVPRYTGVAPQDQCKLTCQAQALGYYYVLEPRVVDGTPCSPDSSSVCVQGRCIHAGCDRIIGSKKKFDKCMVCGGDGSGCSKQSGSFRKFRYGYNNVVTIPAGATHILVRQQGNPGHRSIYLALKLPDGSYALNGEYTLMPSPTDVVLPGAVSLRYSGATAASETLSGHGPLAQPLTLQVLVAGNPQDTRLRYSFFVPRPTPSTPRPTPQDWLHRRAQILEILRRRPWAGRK

For data set [2], the target named is T2, A disintegrin and metalloproteinase with thrombospondin motifs 4 (Homo sapiens) (UniProt O75173).
T2 sequence (whole entry): T1 sequence (O75173 whole entry)
In words: Inhibitory activity against human Aggrecanase 1.

Data set [3] in a line: Cmax in male Sprague-Dawley rats. The data set is classed as ADME, organism-based. The following applies: rat, in vivo.
The target of data set [4] is T3, A disintegrin and metalloproteinase with thrombospondin motifs 4 (Bos taurus) (UniProt Q9TT93).
T3 sequence (whole entry): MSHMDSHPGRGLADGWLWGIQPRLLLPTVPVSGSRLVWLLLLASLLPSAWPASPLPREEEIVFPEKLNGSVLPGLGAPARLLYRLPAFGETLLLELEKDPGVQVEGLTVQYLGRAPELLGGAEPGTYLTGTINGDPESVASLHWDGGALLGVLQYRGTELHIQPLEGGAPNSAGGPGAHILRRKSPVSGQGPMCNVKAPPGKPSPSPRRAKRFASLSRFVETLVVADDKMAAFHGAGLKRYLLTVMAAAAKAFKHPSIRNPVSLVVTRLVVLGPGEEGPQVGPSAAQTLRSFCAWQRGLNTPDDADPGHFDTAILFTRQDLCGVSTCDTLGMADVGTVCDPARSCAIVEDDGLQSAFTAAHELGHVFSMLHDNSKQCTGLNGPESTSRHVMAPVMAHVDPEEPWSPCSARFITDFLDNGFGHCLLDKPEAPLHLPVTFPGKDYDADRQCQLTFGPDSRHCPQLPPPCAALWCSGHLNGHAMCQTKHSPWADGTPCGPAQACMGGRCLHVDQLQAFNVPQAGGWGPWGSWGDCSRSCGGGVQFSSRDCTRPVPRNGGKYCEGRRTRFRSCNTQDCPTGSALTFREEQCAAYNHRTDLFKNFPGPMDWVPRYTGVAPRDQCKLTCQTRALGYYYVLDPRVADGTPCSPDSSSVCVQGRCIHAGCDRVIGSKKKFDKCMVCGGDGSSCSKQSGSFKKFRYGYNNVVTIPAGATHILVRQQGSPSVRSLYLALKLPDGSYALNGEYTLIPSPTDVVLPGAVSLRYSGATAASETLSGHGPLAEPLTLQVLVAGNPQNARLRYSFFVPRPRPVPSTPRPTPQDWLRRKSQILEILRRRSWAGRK
Description: Inhibition of IL1induced proteoglycan degradation in bovine cartilage, 3 day incubation at 10 ug/mL. The data set is classed as functional.

A further data set concerns the target Collagenase 3 (Homo sapiens, UniProt P45452).
Data set [5] is described as follows: Oral bioavailability in male Sprague-Dawley rats. The data set is classed as ADME, organism-based. The note with it: rat, in vivo.
In the next data set the target is T4, Interstitial collagenase (Homo sapiens, UniProt P03956).
T4 sequence (P03956 whole entry): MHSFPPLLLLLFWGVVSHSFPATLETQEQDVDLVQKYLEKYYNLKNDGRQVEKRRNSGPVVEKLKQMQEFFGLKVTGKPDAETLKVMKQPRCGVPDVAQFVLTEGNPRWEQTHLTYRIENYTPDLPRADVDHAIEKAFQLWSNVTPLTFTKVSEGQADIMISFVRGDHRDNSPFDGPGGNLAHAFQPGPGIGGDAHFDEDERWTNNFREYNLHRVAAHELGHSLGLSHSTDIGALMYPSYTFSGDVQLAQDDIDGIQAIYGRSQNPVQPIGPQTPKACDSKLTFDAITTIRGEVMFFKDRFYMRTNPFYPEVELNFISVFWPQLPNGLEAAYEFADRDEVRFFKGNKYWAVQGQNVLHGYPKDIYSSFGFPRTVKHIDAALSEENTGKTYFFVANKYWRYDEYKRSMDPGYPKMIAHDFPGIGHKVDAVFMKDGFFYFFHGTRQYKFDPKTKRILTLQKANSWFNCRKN
Description: Inhibitory activity against MMP1.

Data set [6] in a line: Clearance in male Sprague-Dawley rats. The data set is classed as ADME, organism-based. The following applies: rat, in vivo.
Data set [7] deals with Matrix metalloproteinase-14 (Homo sapiens, UniProt P50281). In words: Inhibitory activity against MMP14.
Data set [8] is described as follows: Half life in male Sprague-Dawley rats. The data set is classed as ADME, organism-based. The following applies: rat, in vivo.
Data set [9] deals with 72 kDa type IV collagenase (Homo sapiens, UniProt P08253). Description: Inhibitory activity against MMP2.

SMILES strings stand for the structures. pIC50: −log10 of the molar value. Activity calls are given as the source filed them. The calls are words filed in the database; no cut-off is given here.

The pIC50 is the IC50 on a negative log10 scale, so that one unit is a factor of ten. High values mean a low IC50, low ones a high IC50. Usually inhibition stands for the relative decrease from the control value, in per cent. In general, Cmax refers to the peak of the concentration-time curve. In general, bioavailability refers to dose-corrected exposure relative to a reference, in per cent. A higher bioavailability goes with good availability. The term clearance denotes a measure of how efficiently the substance is removed, as volume per time. A high value points to a high capacity for elimination. A word on the half-life: it is how long it takes for the measured level to halve. Lower therefore signals rapid decline.

Chain of 72 kDa type IV collagenase (P08253 whole entry): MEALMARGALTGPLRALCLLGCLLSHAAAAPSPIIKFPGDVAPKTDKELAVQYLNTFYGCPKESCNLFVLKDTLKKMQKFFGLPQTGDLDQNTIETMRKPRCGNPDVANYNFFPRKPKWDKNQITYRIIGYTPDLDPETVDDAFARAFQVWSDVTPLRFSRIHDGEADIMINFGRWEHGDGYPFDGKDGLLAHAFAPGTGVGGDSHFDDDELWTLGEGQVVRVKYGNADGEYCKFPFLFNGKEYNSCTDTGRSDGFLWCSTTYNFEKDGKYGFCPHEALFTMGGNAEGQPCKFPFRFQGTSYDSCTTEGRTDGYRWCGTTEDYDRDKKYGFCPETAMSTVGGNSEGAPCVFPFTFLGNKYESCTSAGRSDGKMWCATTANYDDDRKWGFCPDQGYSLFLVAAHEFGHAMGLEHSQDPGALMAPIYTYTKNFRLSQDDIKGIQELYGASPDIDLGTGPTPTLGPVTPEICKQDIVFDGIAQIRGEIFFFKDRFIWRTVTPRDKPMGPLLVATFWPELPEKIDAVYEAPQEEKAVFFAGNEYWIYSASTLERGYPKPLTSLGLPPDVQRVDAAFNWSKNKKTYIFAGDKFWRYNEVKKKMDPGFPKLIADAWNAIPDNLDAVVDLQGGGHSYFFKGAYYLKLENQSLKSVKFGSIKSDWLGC

On to `CC(C)[C@@H](NS(=O)(=O)c1ccc(-c2ccc(OC(=O)c3cc4ccccc4o3)cc2)cc1)C(=O)O`, for which the pIC50 in data set [1] was 6.46. In [1], `CC(C)[C@H](C(=O)O)N(Cc1cccnc1)S(=O)(=O)c1ccc(-c2ccccc2)cc1` showed a pIC50 of 4.92. As to `CC(C)[C@@H](NS(=O)(=O)c1cccc(-c2ccccc2)c1)C(=O)O`, the negative logarithm of the IC50 (pIC50) in data set [1] was less than 4.00.

`O=C(O)CC[C@@H](NS(=O)(=O)c1ccc(-c2ccccc2)cc1)C(=O)O` had a negative logarithm of the IC50 (pIC50) in data set [1] of 5.96.

With `COc1ccc(S(=O)(=O)N(Cc2cccnc2)C(C(=O)NO)C(C)C)cc1` (single isomer, unassigned), in [2], the inhibition result is “inactive”. For the compound `Cc1c(C(=O)Oc2ccc(-c3ccc(S(=O)(=O)N[C@@H](C(=O)O)C(C)C)cc3)cc2)oc2ccccc12`, the pIC50 in data set [1] was 7.07.

Consider `CC(C)[C@@H](NS(=O)(=O)c1ccc(-c2ccc(OCc3cc4ccccc4o3)cc2)cc1)C(=O)O`, for which the pIC50 in [1] was 5.85. Same read-out and setting: the figure for `CC(C)C(CC(=O)O)NS(=O)(=O)c1ccc(-c2ccccc2)cc1` (stereo unspecified) is 4.00; for `CC(C)[C@@H](NS(=O)(=O)c1ccc(-c2ccccc2[N+](=O)[O-])cc1)C(=O)O` it is 4.30. In the case of `CC(C)[C@@H](NS(=O)(=O)c1ccc(-c2ccc(NC(=O)c3cc4ccccc4o3)cc2)cc1)C(=O)O`, the pIC50 in data set [1] was 5.12.

As to `Cc1c(COc2ccc(-c3ccc(S(=O)(=O)N[C@H](Cc4ccccc4)C(=O)O)cc3)cc2)oc2ccccc12`, the pIC50 in data set [1] is 6.15; against Collagenase 3, 8.36; on Interstitial collagenase it was less than 4.00; in [7] it was 5.52; in data set [9], 7.55. Besides, the Cmax in data set [3] was found to be 1360 ng/mL. In data set [4], this compound displayed an inhibition of 89%. In addition, the bioavailability in data set [5] came to 35%. In [6], this compound displayed a clearance of 16.1 mL/min/kg. The compound further gave a half-life in [8] of 4.62 h. The compound `CC(C)[C@@H](NS(=O)(=O)c1ccc(-c2ccccc2)c(N)c1)C(=O)O` had a pIC50 in [1] of 4.52. Same read-out and setting: the figure for `CC(C)[C@H](NS(=O)(=O)c1ccc(-c2ccccc2)cc1)C(=O)O` is less than 4.00; for `CC(C)[C@@H](NS(=O)(=O)c1ccc(-c2ccccc2O)cc1)C(=O)O` it is 4.70; for `O=C(O)[C@@H](Cc1ccccc1)NS(=O)(=O)c1ccc(-c2ccccc2)cc1` it is 5.37. Compound `C[C@@H](NS(=O)(=O)c1ccc(-c2ccccc2)cc1)C(=O)O` gave a negative logarithm of the IC50 (pIC50) in data set [1] of 5.26. On the same count and under the same terms, as for `CC(C)[C@@H](NS(=O)(=O)c1ccc(-c2ccccc2)cc1)C(=O)O`, the figure is 5.52; as for `CC(C)[C@@H](NS(=O)(=O)c1ccc(-c2ccc(CC(=O)c3cc4ccccc4o3)cc2)cc1)C(=O)O`, 5.42. With `COc1ccc(S(=O)(=O)N(Cc2cccnc2)[C@@H](C(=O)NO)C(C)C)cc1`, the inhibition in data set [2] (concentration not given here) came to 92%. Turning to `O=C(O)[C@@H](Cc1cc2ccccc2[nH]1)NS(=O)(=O)c1ccc(-c2ccccc2)cc1`, the pIC50 in data set [1] is 5.55. `CC(C)[C@H](C(=O)O)N(C)S(=O)(=O)c1ccc(-c2ccccc2)cc1`: the negative-log IC50 (pIC50) in [1] was 5.80. With `CC(C)[C@@H](NS(=O)(=O)c1ccc(-c2ccc(/C=C/c3cc4ccccc4o3)cc2)cc1)C(=O)O`, the pIC50 in [1] was 6.40.
